Measured values published in patent US20220378688A1, “Moisturizing or anti-atopic composition containing fatty acids or fatty acid derivatives” (DAEBONG LS, LTD, priority 2019, published 2022).
“And” between values parts separate entries of the source, which are not always exact repeats. Equal entries are not always repeated.

What was measured:
Type in all cases: cell-based, human
HaCaT cells = assay: Cytotoxicity assessment, EZ-Cytox assay, HaCaT cell growth rate; settings: untreated = 100
Procedure: HaCaT cells, which are human epidermal keratinocytes, were distributed from Dr. C. G. Hyun (Jeju National University, Korea) and Dulbecco's Modified Eagle's Medium (DMEM) medium containing 100 units/ml of penicillin-streptomycin and 10% by volume of fetal bovine serum (FBS) was used and cultured at 37° C. and 5% CO2 incubator. Subculture was performed at intervals of 3 to 4 days.
The EZ-cytox assay is a representative method for measuring cell viability using the principle that water solution tetrazolium salt (WST) reacts with dehydrogenase of living cells to generate orange water-soluble formazan.
HaCaT cells were aliquoted in a 96-well plate at 1.0×10^4 cells/mL using DMEM medium supplemented with 10% by volume of FBS to check cytotoxicity and then cultured at 37° C., 5% CO2 condition for 18 hours. The cultured HaCaT cells were exchanged with serum-free DMEM to treat the extract to be evaluated. After that, EZ-cytox was added to each well and reacted for 30 minutes at 37° C. and 5% CO2, and absorbance was measured at 450 nm using a microplate reader. The average absorbance value for each sample group was obtained, and the cell viability was evaluated by comparing it with the absorbance value of the control group.

hyaluronic acid = assay: Hyaluronic acid production in HaCaT cells (ELISA); settings: 24 hours, untreated = 100
Procedure: HaCaT cells were aliquoted in a 24-well plate at 1.0×10^5 cells/mL and cultured at 37° C., 5% CO2 conditions for 18 hours. It was replaced with a serum-free DMEM medium, and the samples in Table 2 were treated and cultured for 24 hours. After that, the culture medium was removed, centrifuged at 15,000 rpm for 5 minutes, and the supernatant was removed and stored frozen (−20° C.) until quantification. As a control group, a sample treated with retinoic acid (RA) at a concentration of 10 μM was used. Enzyme-Linked Immunosorbent Assay (ELISA) was performed using a hyaluronic acid ELISA kit (Elabscience Biotechnology Co., Ltd) and the method provided by the manufacturer.

[1] = system: thymus and activation regulated chemokine (TARC); assay: TARC production inhibitory activity in HaCaT cells (ELISA); settings: IFN (30 ng/ml) + TNF (30 ng/ml) stimulated = 100
Procedure: In order to confirm the atopic treatment effect on the carrot stems and leaves extract according to the present disclosure, atopic thymus and activation regulated chemokine (TARC) was analyzed.
HaCaT cells were aliquoted in a 24-well plate at 1.5×10^5 cells/mL and cultured at 37° C., 5% CO2 conditions for 18 hours. […] Then, the atopic chemokine production content of the supernatant obtained by centrifugation of the culture medium (12,000 rpm, 3 min) was measured. All samples were stored frozen (−20° C.) until quantification. For TARC content, a human enzyme-linked immunosorbent assay (ELISA) kit (R&D Systems Inc., Minneapolis, Minn., USA) was used, and the r^2 value of the standard curve for the standard was 0.99 or more.

Filaggrin = assay: Skin barrier strengthening: filaggrin production in HaCaT cells (ELISA); settings: 10 μM, 24 hours, untreated = 100
Procedure: HaCaT cells were aliquoted in a 24-well plate at 1.0×10^5 cells/mL and cultured at 37° C., 5% CO2 conditions for 18 hours. It was exchanged with serum-free DMEM, and the carrot stems and leaves extracts and roots extracts of the samples in Table 2 were treated and cultured for 24 hours. After removing the culture medium and washing with PBS for each group, PBS is containing no drug that may affect protein quantification was treated. The protein was collected after lysing the cells by repeating low-temperature and room-temperature incubation. As a control group, a sample treated with retinoic acid (RA) at a concentration of 10 μM was used. Quantification was performed using the Filaggrin-ELISA kit (Elabscience Biotechnology Co., Ltd) and was performed by the method provided by the manufacturer.

Structure (SMILES)	HaCaT cell growth rate (%) (HaCaT cells; 12.5 μM)	HaCaT cell growth rate (%) (HaCaT cells; 25 μM)	HaCaT cell growth rate (%) (HaCaT cells; 50 μM)	HaCaT cell growth rate (%) (HaCaT cells; 100 μM)	HA production (%) (hyaluronic acid; 25 μM)	HA production (%) (hyaluronic acid; 50 μM)	HA production (%) (hyaluronic acid; 100 μM)	TARC production (%) ([1]; 12.5 μM)	TARC production (%) ([1]; 25 μM)	TARC production (%) ([1]; 50 μM)	HaCaT cell growth rate (%) (HaCaT cells; 10 μM)	FLG production (%) (Filaggrin)	HA production (%) (hyaluronic acid; 10 μM)
CC/C=C\C/C=C\C/C=C\CCCCCCCC(=O)O [α-Linolenic acid, α-linolenic acid]	97.8 ± 3.6	96.1 ± 4.4	92.1 ± 3.9	106.9 ± 1.0	105.0 ± 0.06	110.5 ± 0.02	116.3 ± 0.26	72.6 ± 0.03	45.6 ± 0.51	35.7 ± 1.44			
CCCCC/C=C\C/C=C\CCCCCCCC(=O)OCC [Ethyl linoleate, ethyl linoleate]	92.5 ± 3.0	92.3 ± 2.0	88.9 ± 2.3	94.1 ± 3.0	92.7 ± 0.27	85.5 ± 0.27	89.5 ± 0.07	78.3 ± 0.10	53.8 ± 0.16	42 ± 0.81			
CC1=C(/C=C/C(C)=C/C=C/C(C)=C/C(=O)O)C(C)(C)CCC1 [Retinoic acid, retinoic acid, reference compound]											103.8 ± 2.1	157.5 ± 0.13	153.1 ± 0.14% and 100.0 ± 0.36%
CCCCC/C=C\C/C=C\CCCCCCCC(=O)OC[C@@H](O)CO (racemic) [Monolinolein]	106.0 ± 2.6	102.2 ± 1.0	101.5 ± 1.7	122.6 ± 2.1	102.7 ± 0.14	113.7 ± 0.14	114.4 ± 0.05	75.2 ± 0.07	37.7 ± 1.59	30.9 ± 1.97			
